Assay results: US9186318B2, “Quinolyl-containing hydroxamic acid compound and preparation method thereof, and pharmaceutical composition containing this compound and use thereof” (Beijing Konruns Pharmaceutical Co., Ltd, priority 2011, dated 2015)

Columns and labels:
Experiment in all cases: KinomeScan 96-kinase panel
Assay type in all cases: binding
Settings in all cases: compound concentration 1000 nM
JNK2 = JNK2 (Homo sapiens (Human), UniProt P45984)
Description: (§1) The details of the screening technology were described in Fabian, M. A. et al, Nat., Biotechnol. 2005, 23, 329 and Karaman, M. W. et al, Nat., Biotechnol. 2008, 26, 127. From the above representative results, it can be seen that the compounds of the present invention have potent inhibitory activities on kinases including ALK, AXL, VEGFR2, PDGFR-α, PDGFR-β, c-KIT, Flt3, MEK1, MEK2, CSF1R, EPHA2, EPHA2, MKNK2, SRC, TIE2 and their mutants. Accordingly, the compounds of the present invention can be used for the treatment of diseases caused by abnormal activities of these kinases, e.g., cancer, psoriasis, hepatic cirrhosis, diabetes, diseases involving angiogenesis, eye diseases, immune system diseases, cardiovascular diseases, and so forth.

ADCK3 = ADCK3 (Homo sapiens (Human), UniProt Q8NI60)
Description: as §1

[1] = target: ABL1(E255K)-phosphorylated (Homo sapiens (Human), UniProt P00519, E255K)
Description: as §1

EGFR(L858R) = EGFR(L858R) (Homo sapiens (Human), UniProt P00533, L858R)
Description: as §1

VEGFR2 = VEGFR2 (Homo sapiens (Human), UniProt P35968)
Description: as §1

AXL = AXL (Homo sapiens (Human), UniProt P30530)
Description: as §1

ABL1-phosphorylated = ABL1-phosphorylated (Homo sapiens (Human), UniProt P00519)
Description: as §1

MKNK1 = MKNK1 (Homo sapiens (Human), UniProt Q9BUB5)
Description: as §1

PRKCE = PRKCE (Homo sapiens (Human), UniProt Q02156)
Chain of PRKCE (Q02156 whole entry): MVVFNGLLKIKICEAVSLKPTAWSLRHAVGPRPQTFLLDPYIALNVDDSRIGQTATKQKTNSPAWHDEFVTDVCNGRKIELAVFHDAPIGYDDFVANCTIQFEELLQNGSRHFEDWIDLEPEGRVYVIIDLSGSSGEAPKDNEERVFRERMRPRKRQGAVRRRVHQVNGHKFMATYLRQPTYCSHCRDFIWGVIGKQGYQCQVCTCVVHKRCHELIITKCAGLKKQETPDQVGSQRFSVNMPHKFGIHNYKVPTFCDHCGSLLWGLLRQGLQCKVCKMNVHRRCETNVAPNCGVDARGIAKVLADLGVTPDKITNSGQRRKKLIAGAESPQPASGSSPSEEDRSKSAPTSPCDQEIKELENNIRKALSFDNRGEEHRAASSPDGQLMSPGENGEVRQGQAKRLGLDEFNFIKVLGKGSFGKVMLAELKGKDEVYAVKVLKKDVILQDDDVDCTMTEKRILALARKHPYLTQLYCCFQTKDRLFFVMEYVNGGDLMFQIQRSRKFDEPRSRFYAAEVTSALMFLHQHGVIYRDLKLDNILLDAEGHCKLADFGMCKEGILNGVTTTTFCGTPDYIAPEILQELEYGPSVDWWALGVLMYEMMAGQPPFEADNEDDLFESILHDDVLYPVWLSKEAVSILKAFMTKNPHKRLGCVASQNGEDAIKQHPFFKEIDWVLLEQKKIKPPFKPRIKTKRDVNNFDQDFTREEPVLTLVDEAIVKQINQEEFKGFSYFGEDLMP
Description: as §1

JNK1 = JNK1 (Homo sapiens (Human), UniProt P45983)
Description: as §1

CSNK1D = CSNK1D (Homo sapiens (Human), UniProt P48730)
Description: as §1

CDK11 = CDK11 (Homo sapiens (Human), UniProt Q9BWU1)
Description: as §1

TGFBR1 = TGFBR1 (Homo sapiens (Human), UniProt P36897)
Description: as §1

PCTK1 = PCTK1 (Homo sapiens (Human), UniProt Q00536)
Description: as §1

AURKA = AURKA (Homo sapiens (Human), UniProt O14965)
Description: as §1

SRC = SRC (Homo sapiens (Human), UniProt P12931)
Description: as §1

BRAF = BRAF (Homo sapiens (Human), UniProt P15056)
Description: as §1

ZAP70 = ZAP70 (Homo sapiens (Human), UniProt P43403)
Chain of ZAP70 (P43403 whole entry): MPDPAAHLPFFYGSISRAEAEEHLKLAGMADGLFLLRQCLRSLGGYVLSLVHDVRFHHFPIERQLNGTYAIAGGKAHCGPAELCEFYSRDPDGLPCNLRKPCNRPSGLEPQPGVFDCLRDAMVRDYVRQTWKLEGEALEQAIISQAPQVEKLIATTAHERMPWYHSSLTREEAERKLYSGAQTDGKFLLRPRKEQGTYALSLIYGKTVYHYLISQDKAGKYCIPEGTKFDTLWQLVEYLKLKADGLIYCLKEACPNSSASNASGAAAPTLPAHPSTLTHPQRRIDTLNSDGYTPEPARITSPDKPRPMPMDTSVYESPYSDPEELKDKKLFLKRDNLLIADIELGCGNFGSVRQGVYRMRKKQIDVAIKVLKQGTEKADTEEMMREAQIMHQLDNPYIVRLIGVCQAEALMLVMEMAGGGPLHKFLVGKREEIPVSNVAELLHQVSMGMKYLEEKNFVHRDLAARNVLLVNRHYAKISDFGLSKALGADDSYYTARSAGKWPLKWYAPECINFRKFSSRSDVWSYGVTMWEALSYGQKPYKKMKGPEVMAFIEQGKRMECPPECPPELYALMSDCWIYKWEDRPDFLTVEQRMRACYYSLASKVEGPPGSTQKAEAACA
Description: as §1

MET = MET (Homo sapiens (Human), UniProt P08581)
Description: as §1

PAK1 = PAK1 (Homo sapiens (Human), UniProt Q13153)
Chain of PAK1 (Q13153 whole entry): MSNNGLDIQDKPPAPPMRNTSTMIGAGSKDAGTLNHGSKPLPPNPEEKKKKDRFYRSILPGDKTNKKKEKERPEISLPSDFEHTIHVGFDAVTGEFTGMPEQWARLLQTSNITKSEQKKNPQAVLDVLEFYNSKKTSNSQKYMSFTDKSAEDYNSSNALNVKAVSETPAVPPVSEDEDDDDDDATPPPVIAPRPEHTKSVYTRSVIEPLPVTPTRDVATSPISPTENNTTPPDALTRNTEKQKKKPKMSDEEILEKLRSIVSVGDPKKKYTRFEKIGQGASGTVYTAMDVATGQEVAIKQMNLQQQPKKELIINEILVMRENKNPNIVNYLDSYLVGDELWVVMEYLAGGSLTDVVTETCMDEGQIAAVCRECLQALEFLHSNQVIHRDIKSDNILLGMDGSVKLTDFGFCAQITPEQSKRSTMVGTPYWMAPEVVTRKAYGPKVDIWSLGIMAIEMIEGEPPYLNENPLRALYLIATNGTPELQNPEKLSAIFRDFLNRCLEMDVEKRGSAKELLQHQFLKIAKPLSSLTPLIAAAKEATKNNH
Description: as §1

PDPK1 = PDPK1 (Homo sapiens (Human), UniProt O15530)
Chain of PDPK1 (O15530 whole entry): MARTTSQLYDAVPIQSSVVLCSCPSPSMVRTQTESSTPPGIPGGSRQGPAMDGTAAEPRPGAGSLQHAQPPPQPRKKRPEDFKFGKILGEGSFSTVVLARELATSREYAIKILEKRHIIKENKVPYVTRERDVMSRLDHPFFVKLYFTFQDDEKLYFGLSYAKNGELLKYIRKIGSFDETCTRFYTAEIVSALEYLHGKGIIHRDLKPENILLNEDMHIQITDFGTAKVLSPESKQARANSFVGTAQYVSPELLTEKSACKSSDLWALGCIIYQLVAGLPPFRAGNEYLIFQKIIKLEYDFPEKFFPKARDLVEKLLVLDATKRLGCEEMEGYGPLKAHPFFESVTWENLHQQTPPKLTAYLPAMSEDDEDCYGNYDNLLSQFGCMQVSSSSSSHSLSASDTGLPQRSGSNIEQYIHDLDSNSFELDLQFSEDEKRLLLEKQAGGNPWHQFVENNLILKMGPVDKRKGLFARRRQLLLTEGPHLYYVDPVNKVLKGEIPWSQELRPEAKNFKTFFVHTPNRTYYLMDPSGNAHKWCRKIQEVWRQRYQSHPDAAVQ
Description: as §1

PIK3C2B = PIK3C2B (Homo sapiens (Human), UniProt O00750)
Chain of PIK3C2B (O00750 whole entry): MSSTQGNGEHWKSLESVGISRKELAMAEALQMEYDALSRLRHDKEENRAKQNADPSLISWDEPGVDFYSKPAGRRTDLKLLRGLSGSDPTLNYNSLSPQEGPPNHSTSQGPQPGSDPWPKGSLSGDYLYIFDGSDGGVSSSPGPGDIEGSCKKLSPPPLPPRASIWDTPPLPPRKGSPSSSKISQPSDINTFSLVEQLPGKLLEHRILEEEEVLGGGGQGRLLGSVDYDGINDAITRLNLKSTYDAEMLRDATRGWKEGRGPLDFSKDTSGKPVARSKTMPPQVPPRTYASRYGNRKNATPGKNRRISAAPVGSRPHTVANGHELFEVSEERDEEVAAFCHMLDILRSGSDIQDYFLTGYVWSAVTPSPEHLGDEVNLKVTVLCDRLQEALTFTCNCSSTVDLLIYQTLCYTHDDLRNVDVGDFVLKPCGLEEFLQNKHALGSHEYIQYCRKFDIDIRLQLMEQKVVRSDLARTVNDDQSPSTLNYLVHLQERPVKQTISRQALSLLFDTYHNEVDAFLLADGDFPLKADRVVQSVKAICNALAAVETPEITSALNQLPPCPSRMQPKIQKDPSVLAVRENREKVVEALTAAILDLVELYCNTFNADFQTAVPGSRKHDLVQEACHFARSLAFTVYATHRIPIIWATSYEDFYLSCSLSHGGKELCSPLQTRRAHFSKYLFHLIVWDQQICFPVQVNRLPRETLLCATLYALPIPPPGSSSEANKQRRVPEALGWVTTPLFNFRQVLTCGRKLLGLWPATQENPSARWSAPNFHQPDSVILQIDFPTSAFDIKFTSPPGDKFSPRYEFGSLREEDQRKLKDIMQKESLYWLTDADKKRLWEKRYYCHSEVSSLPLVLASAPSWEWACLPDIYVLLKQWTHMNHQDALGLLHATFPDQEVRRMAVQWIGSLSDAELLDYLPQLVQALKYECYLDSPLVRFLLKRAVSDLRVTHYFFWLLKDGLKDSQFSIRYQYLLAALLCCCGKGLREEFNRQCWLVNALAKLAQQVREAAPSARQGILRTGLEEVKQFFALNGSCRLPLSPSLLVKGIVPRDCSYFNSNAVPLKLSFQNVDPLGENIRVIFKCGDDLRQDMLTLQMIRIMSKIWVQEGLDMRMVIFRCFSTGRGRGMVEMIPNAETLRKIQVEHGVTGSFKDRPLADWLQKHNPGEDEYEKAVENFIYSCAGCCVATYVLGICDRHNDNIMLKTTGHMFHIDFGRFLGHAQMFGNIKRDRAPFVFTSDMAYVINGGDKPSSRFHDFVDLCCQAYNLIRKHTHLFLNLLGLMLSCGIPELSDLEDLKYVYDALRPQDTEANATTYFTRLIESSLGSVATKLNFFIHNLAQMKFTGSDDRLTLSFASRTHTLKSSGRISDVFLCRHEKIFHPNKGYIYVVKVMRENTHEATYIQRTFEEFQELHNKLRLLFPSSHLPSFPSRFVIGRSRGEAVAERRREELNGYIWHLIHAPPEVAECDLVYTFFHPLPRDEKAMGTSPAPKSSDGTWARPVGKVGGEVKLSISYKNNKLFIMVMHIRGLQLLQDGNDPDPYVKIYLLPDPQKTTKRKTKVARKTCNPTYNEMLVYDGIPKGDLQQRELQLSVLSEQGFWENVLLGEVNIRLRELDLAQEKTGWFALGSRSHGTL
Description: as §1

CDK7 = CDK7 (Homo sapiens (Human), UniProt P50613)
Description: as §1

ERBB2 = ERBB2 (Homo sapiens (Human), UniProt P04626)
Description: as §1

KIT (D816V) = KIT (D816V) (Homo sapiens (Human), UniProt P10721, D816V)
Chain of KIT (D816V) (P10721 26-976 D816V): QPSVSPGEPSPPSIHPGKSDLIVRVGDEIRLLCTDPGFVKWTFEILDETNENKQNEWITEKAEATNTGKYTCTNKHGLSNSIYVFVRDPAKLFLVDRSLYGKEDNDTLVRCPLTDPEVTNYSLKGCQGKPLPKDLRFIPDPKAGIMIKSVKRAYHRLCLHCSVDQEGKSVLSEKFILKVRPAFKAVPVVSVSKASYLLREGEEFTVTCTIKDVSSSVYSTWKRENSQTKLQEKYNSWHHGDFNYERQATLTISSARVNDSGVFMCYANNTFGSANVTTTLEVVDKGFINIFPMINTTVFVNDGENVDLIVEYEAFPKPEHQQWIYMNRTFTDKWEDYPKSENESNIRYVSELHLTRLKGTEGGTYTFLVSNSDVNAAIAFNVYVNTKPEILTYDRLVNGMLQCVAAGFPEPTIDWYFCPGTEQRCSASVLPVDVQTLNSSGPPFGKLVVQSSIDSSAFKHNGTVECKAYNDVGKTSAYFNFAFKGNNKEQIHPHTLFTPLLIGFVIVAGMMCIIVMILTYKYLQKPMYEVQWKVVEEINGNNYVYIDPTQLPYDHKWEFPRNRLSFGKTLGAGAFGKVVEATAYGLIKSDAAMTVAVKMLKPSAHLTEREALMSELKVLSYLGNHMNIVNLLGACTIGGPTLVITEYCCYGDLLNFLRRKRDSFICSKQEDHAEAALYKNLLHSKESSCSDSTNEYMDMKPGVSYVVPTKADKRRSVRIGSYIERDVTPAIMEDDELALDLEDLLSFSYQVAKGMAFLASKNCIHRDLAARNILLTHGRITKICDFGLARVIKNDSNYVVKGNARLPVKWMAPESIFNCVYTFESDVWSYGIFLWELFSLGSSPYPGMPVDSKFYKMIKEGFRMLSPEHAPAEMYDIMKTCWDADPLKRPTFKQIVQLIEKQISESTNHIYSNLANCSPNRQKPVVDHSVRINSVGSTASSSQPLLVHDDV
Description: as §1

ACVR1B = ACVR1B (Homo sapiens (Human), UniProt P36896)
Description: as §1

LKB1 = LKB1 (Homo sapiens (Human), UniProt Q15831)
Description: as §1

MAP3K4 = MAP3K4 (Homo sapiens (Human), UniProt Q9Y6R4)
Description: as §1

ERBB4 = ERBB4 (Homo sapiens (Human), UniProt Q15303)
Description: as §1

IKK-beta = IKK-beta (Homo sapiens (Human), UniProt O14920)
Description: as §1

DCAMKL1 = DCAMKL1 (Homo sapiens (Human), UniProt O15075)
Description: as §1

IKK-alpha = IKK-alpha (Homo sapiens (Human), UniProt O15111)
Description: as §1

PIM2 = PIM2 (Homo sapiens (Human), UniProt Q9P1W9)
Description: as §1

PLK3 = PLK3 (Homo sapiens (Human), UniProt Q9H4B4)
Description: as §1

[2] = target: TYK2 (JH1domain-catalytic) (Homo sapiens (Human), UniProt P29597)
Description: as §1

AURKB = AURKB (Homo sapiens (Human), UniProt Q96GD4)
Description: as §1

BTK = BTK (Homo sapiens (Human), UniProt Q06187)
Description: as §1

COc1cc2c(Oc3ccc(NC(=O)C4(C(=O)Nc5ccc(F)cc5)CC4)cc3F)ccnc2cc1OCCCCCC(=O)NO [Example 13, N1′-[3-fluoro-4-[[7-[6-(hydroxyamino)-6-oxohexyloxy]-6-methoxy-4-quinolyl]oxy]phenyl]-N1-(4-fluorophenyl)cyclopropane-1,1-dicarboxamide]
% Ctrl@1000 nM (JNK2): 62 % Ctrl
% Ctrl@1000 nM (ADCK3): 100 % Ctrl
% Ctrl@1000 nM [1]: 7.8 % Ctrl
% Ctrl@1000 nM (EGFR(L858R)): 5.7 % Ctrl
% Ctrl@1000 nM (VEGFR2): 1 % Ctrl
% Ctrl@1000 nM (AXL): 1.2 % Ctrl
% Ctrl@1000 nM (ABL1-phosphorylated): 4.8 % Ctrl
% Ctrl@1000 nM (MKNK1): 8.8 % Ctrl
% Ctrl@1000 nM (PRKCE): 100 % Ctrl
% Ctrl@1000 nM (JNK1): 100 % Ctrl
% Ctrl@1000 nM (CSNK1D): 54 % Ctrl
% Ctrl@1000 nM (CDK11): 1.2 % Ctrl
% Ctrl@1000 nM (TGFBR1): 85 % Ctrl
% Ctrl@1000 nM (PCTK1): 100 % Ctrl
% Ctrl@1000 nM (AURKA): 5.2 % Ctrl
% Ctrl@1000 nM (SRC): 0.15 % Ctrl
% Ctrl@1000 nM (BRAF): 87 % Ctrl
% Ctrl@1000 nM (ZAP70): 80 % Ctrl
% Ctrl@1000 nM (MET): 7.7 % Ctrl
% Ctrl@1000 nM (PAK1): 66 % Ctrl
% Ctrl@1000 nM (PDPK1): 87 % Ctrl
% Ctrl@1000 nM (PIK3C2B): 99 % Ctrl
% Ctrl@1000 nM (CDK7): 5.8 % Ctrl
% Ctrl@1000 nM (ERBB2): 15 % Ctrl
% Ctrl@1000 nM (KIT (D816V)): 2.2 % Ctrl
% Ctrl@1000 nM (ACVR1B): 90 % Ctrl
% Ctrl@1000 nM (LKB1): 91 % Ctrl
% Ctrl@1000 nM (MAP3K4): 100 % Ctrl
% Ctrl@1000 nM (ERBB4): 17 % Ctrl
% Ctrl@1000 nM (IKK-beta): 78 % Ctrl
% Ctrl@1000 nM (DCAMKL1): 100 % Ctrl
% Ctrl@1000 nM (IKK-alpha): 100 % Ctrl
% Ctrl@1000 nM (PIM2): 100 % Ctrl
% Ctrl@1000 nM (PLK3): 100 % Ctrl
% Ctrl@1000 nM [2]: 98 % Ctrl
% Ctrl@1000 nM (AURKB): 7 % Ctrl
% Ctrl@1000 nM (BTK): 2.6 % Ctrl
